Laboratory results taken from US6426362B1, “Formulations of tocopherols and methods of making and using them” (Galileo Laboratories, Inc., priority 1999, dated 2002).

Tested on: Oxidatively competent cells
Test: Antimycin A-induced cell death in oxidatively competent cells, SYTOX assay after 4 hours
Assay type: cell-based, rat-human hybrid (GCL1)
Settings: for cell death when tested individually: highest concentrations tested; for Cell Death (%): ± SD; for potency among the tocopherols tested: Table 1 comparison
Excerpt: The GCL1 (WiF-B) liver cell line is a hybrid originating from the fusion of rat hepatoma cells (fao) and human fibroblasts (W138). Cassio et al. (1991) J. Cell Biol. 115:1397-1408; Shanks et al. (1994) J. Cell Science 107:813-825. […] Ihrke et al. 1993, J. Cell Biol. 123:1761-1775. At greater than 80% confluence, more than 80% of the cells participate in forming one or more phaselucent, spherical structures that are located between cells, termed bile canicular-like spaces. In contrast to the majority of cell lines maintained in culture which are fermentative, GCL1 cells, when at their maximal density and polarity, are highly oxidative (i.e., they can be readily killed by inhibitors of oxidative phosphorylation or electron transport uncouplers). […] These cells are amenable to use in high throughput screening (HTS) technology.
Energetically competent cells are seeded onto 96-well plates at 1×10^3/well or 2.5×10^3/well as passage 15. The cells are grown in DMEM with 10% FBS and 1.5 g/L sodium bicarbonate for 24 or 48 hours to reach 85% confluence. The cells are washed once with HBSS and then 100 μl of HBSS containing different concentration of AA (Sigma Chemical Co., Cat # A 8674) is added to the cells. AA is dissolved in DMSO to make a stock solution of 50 mM, then diluted with HBSS to 100, 50, 25, 12.5, 6.25, 3.125, and 1.56 μM for dose-response curves. The cells, with or without AA, are incubated at 37° C. in a 5% CO2 humidified incubator for 1, 3, and 5 hours. The concentration of AA is chosen to induce 75% or 100% cell death as a screening dose to test the effect of tocopherols to protect against AA-induced cell toxicity. The concentration of agents used for screening will be dependent upon the agents. Certain control groups contain 100 μl of HBSS only.
SYTOX Green nucleic acid stain is a high-affinity nucleic acid stain that easily penetrates cells with a compromised plasma membrane but will not cross the membrane of live cells. The nucleic acids of dead cells fluoresce bright green at 524 nm when excited with the 488 nm spectral source or with any other 450-500 nm source. […] In the cell viability assay chemical ischemia is created in cells that are incubated with the SYTOX dye. The compound antimycin is used to simulate ischemia at the same time as stimulating the cells with forskolin. […] The assay is performed on cells grown in 96-well format allowing high throughput screening of compounds.
Materials: (i)SYTOX Green dye, supplied as a 5 mM solution in DMSO (Molecular Probes # S-7020) is stored at −20° C. until use. ii.) Antimycin-A: (Sigma # A-8674) dissolve […] in 10 ml of DMSO to make a 10 mM stock solution. Aliquot at 100 μl. This 10 mM stock is then diluted to 1 mM with DMSO and aliquoted at 25 μL. Both the 10 mM and the 1 mM are stored at −20° C. until use. (iii) Forskolin (Sigma # F-6886), dissolve 50 mg aliquot in 1.62 ml of DMSO to make a 100 mM stock solution. Aliquot at 100 μl and store at −20° C. until use. iv.) HBSS-SYTOX-FORSKOLIN-ANTIMYCIN (H-S-F-A) solution: H-S-F-A solution is made up fresh prior to each assay in sterile 175 ml or 225 ml Falcon bottles. The working concentrations for the assay are 3 μM SYTOX, 50 μM Forskolin and 30 μM Antimycin.
Cells are grown in 96-well black plates (with or without clear bottoms) at a density of 1000 cells per well for 24 hours. The necessary number of 96-well plates containing the specific cell type are obtained and placed in the laminar flow safety cabinet. A sterile microtiter basin is filled with the appropriate volume of pre-warmed 1×HBSS. Using aseptic technique and an 8-channel aspirator, the media is carefully removed from the cells and replaced with 200 μl of 1×HBSS. This is done as quickly as possible to prevent the cells drying out. The plates are then placed in the humidified 37° C. incubators of the Biomek 2000 Side Loader.

[1] = dose 1.2 μg/ml, with antimycin A, 4 hours, SYTOX
[2] = dose 3.7 μg/ml, with antimycin A, 4 hours, SYTOX
[3] = dose 11 μg/ml, with antimycin A, 4 hours, SYTOX
[4] = dose 33 μg/ml, with antimycin A, 4 hours, SYTOX
[5] = dose 100 μg/ml, with antimycin A, 4 hours, SYTOX
[6] = salts of (+)alpha-tocopherol, dose of tocopherol 1.2 μg/ml
[7] = salts of (+)alpha-tocopherol, dose of tocopherol 3.7 μg/ml
[8] = salts of (+)alpha-tocopherol, dose of tocopherol 11 μg/ml
[9] = salts of (+)alpha-tocopherol, dose of tocopherol 33 μg/ml
[10] = salts of (+)alpha-tocopherol, dose of tocopherol 100 μg/ml

SMILES | Cell Death (%) [1] | Cell Death (%) [2] | Cell Death (%) [3] | Cell Death (%) [4] | Cell Death (%) [5] | Cell Death (%) [6] | Cell Death (%) [7] | Cell Death (%) [8] | Cell Death (%) [9] | Cell Death (%) [10] | further results
Cc1c(C)c2c(c(C)c1O)CCC(C)(CCCC(C)CCCC(C)CCCC(C)C)O2 (racemic) [(+/−) alpha-tocopherol, 2,5,7,8-tetramethyl-2-(4′,8′,12′-trimethyltridecyl)-6-chromanol] | 77.2% ± 0.8 | 73.5% ± 1.2 | 52.4% ± 3.4 | 44.2% ± 1.2 | 19.7% ± 2.9 | – | – | – | – | – | protection against stress-induced cell death ((+/−) alpha-tocopherol alone at 10 μg/ml): about 15%; cell death (Example 7, alone at 10 μg/ml (highest concentration tested)): 53%; cell death (Example 8, tocopherol alone at 10 μg/ml): 79.4%; cell death when tested individually (daidzein experiment): over half of the cells died
Cc1c(C)c2c(c(C)c1O)CC[C@@](C)(CCC[C@H](C)CCC[C@H](C)CCCC(C)C)O2 (relative stereo) [(+) alpha-tocopherol, [2R-2R*(4R*,8R*)]-3,4-dihydro-2,5,7,8-tetramethyl-2-(4,8,12-trimethyltridecyl)-2H-1-benzopyran-6-ol] | 77.0% ± 2.5 | 70.13% ± 5.8 | 64.4% ± 3.1 | 49.8% ± 6.0 | 33.78% ± 1.5 | – | – | – | – | – | –
Cc1cc(O)cc2c1O[C@](C)(CCC[C@H](C)CCC[C@H](C)CCCC(C)C)CC2 (relative stereo) [(+) delta-tocopherol, [2R-[2R*(4R*,8R*)]]-3,4-dihydro-2,8-dimethyl-2-(4,8,12-trimethyltridecyl)-2H-1-benzo-pyran-6-ol] | 61.3% ± 4.2 | 39.3% ± 3.8 | 21.3% ± 1.0 | −8.19% ± 1.4 | −68.19% ± | – | – | – | – | – | potency among the tocopherols tested: most potent
Cc1c(O)cc2c(c1C)OC(C)(CCCC(C)CCCC(C)CCCC(C)C)CC2 (centres unmarked) [+ gamma-tocopherol, 3,4-dihydro-2,7,8-trimethyl-2-(4,8,12-trimethyltridecyl)-2H-1-benzyopyran-6-ol] | 76.8 ± 3.1% | 69.3 ± 3.3% | 37.2 ± 0.7% | 16.7 ± 1.9% | −8.5 ± 3.3% | – | – | – | – | – | cell death (Example 7, alone at 1 μg/ml (highest concentration tested)): 62.5%; potency among the tocopherols tested: most potent; protection against stress-induced cell death (gamma-tocopherol alone, 0.03-0.3 μg/ml): not protective by itself
CC(=O)Oc1c(C)c(C)c2c(c1C)CCC(C)(CCC[C@H](C)CCC[C@H](C)CCCC(C)C)O2 (stereo partly drawn) [alpha-tocopherol acetate] | – | – | – | – | – | 73.2% ± 3.3 | 77.5% ± 4.9 | 71.1% ± 1.5 | 64.8% ± 4.9 | 38.% ± 2.3 | Cell Death (%) (salts of (+)alpha-tocopherol, dose of tocopherol 100 μg/ml, listed as acetate salt of alpha-tocopherol): 38%
Cc1c(C)c2c(c(C)c1OC(=O)c1cccnc1)CC[C@@](C)(CCC[C@H](C)CCC[C@H](C)CCCC(C)C)O2 [alpha-tocopherol nicotinate] | – | – | – | – | – | 81.0 ± 2.5% | 76.8 ± 7.0% | 74.0 ± 2.4% | 77.5 ± 3.0% | 67.5 ± 2.8% | –
Cc1c(C)c2c(c(C)c1OP(=O)(O)O)CC[C@@](C)(CCC[C@H](C)CCC[C@H](C)CCCC(C)C)O2 [alpha-tocopherol phosphate] | – | – | – | – | – | 79.7 ± 8.7% | 76.5 ± 4.2% | 83.9 ± 4.4% | 47.2 ± 10.8% | 43.2 ± 17.4% | –
Cc1c(C)c2c(c(C)c1OC(=O)CCC(=O)O)CC[C@@](C)(CCC[C@H](C)CCC[C@H](C)CCCC(C)C)O2 [alpha-tocopherol succinate] | – | – | – | – | – | 85.8 ± 1.4% | 83.9 ± 0.3% | 85.5 ± 2.5% | 90.4 ± 7.4% | 98.7 ± 6.0% | –
Cc1c(C)c2c(c(C)c1O)CCC(C)(CCCC(C)CCCC(C)CCCC(C)C)O2 (stereo not drawn) [alpha-tocopherol, 2,5,7,8-tetramethyl-2-(4′,8′,12′-trimethyltridecyl)-6-chromanol] | – | – | – | – | – | – | – | – | – | – | cell death when tested individually (biochanin A experiment): about half of the cells died
COc1ccc(-c2coc3cc(O)cc(O)c3c2=O)cc1 [biochanin A, 5,7-dihydroxy-4′-methoxyiso-flavone] | – | – | – | – | – | – | – | – | – | – | cell death when tested individually (biochanin A experiment): about half of the cells died
O=c1c(-c2ccc(O)cc2)coc2cc(O)ccc12 [daidzein, 7-hydroxy-3-(4-hydroxyphenyl)-4H-1-benzopyran-4-one] | – | – | – | – | – | – | – | – | – | – | cell death when tested individually (daidzein experiment): over half of the cells died
COc1ccc(-c2cc(=O)c3c(O)cc(O[C@@H]4O[C@H](CO[C@@H]5O[C@@H](C)[C@H](O)[C@@H](O)[C@H]5O)[C@@H](O)[C@H](O)[C@H]4O)cc3o2)cc1O [diosmin, reference compound] | – | – | – | – | – | – | – | – | – | – | protection against stress-induced cell death (diosmin alone at 100 μM): no protection; protection against stress-induced cell death (diosmin alone, 3.3-100 μM): not protective by itself; protection against stress-induced cell death (diosmin alone, 33-100 μM): not effective
COc1ccc([C@@H]2CC(=O)c3c(O)cc(O)cc3O2)cc1O [hesperetin, (S)-2,3-dihydro-5,7-dihydroxy-2-(3-hydroxy-4-methoxyphenyl)-4H-1-benzopyran-4-one] | – | – | – | – | – | – | – | – | – | – | efficacy when tested separately (2 and 50 μM heperitin, 0.22 and 3.6 μg/ml tocopherol, cell death four hours later): generally ineffective
